This passage reports relative viability results from the supplement of paper PMC10307832.

Holding throughout (assay): relative viability (nuclei count vs DMSO), 5 days (fraction); higher = more cells survive
Compound in assay [1]: CC1=CC(=NN1)NC2=CC(=NC(=N2)/C=C/C3=CC=CC=C3)N4CCN(CC4)C + Cc1nc(Nc2ncc(C(=O)Nc3c(C)cccc3Cl)s2)cc(N2CCN(CCO)CC2)n1 [Dasatinib] (partner 0.075 µM)
The essentials: (§1)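 A single step with final 0.05% Triton X-100, 1% formaldehyde and 1 ug/ml Hoechst fixed the cells and stained nuclei 5 days after treatment. Lung cancer cell lines in 1536-well plates had been treated by pin tool the day after seeding with one drug alone or a fixed anchor-drug dose plus five library-drug doses (not always all listed) in √10 steps, and nuclei were counted on 4× images. Relative viability is the ratio of nuclei in treated wells to nuclei in vehicle wells, taken as the median of duplicate plates.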

Compound in the assay “Obatoclax + Palbociclib”: COC1=CC(c2cc3ccccc3[nH]2)=N/C1=C\c1[nH]c(C)cc1C [Obatoclax] + CC(=O)c1c(C)c2cnc(Nc3ccc(N4CCNCC4)cn3)nc2n(C2CCCC2)c1=O [Palbociclib] (partner 0.5 µM)
The essentials:
as §1

Compound in the assay “Bortezomib + Tozasertib”: CC(C)C[C@H](NC(=O)[C@H](Cc1ccccc1)NC(=O)c1cnccn1)B(O)O [Bortezomib] + Cc1cc(Nc2cc(N3CCN(C)CC3)nc(Sc3ccc(NC(=O)C4CC4)cc3)n2)n[nH]1 [Tozasertib] (partner 0.1 µM)
The essentials:
as §1

Compound in the assay “Obatoclax + Tozasertib”: COC1=CC(c2cc3ccccc3[nH]2)=N/C1=C\c1[nH]c(C)cc1C [Obatoclax] + Cc1cc(Nc2cc(N3CCN(C)CC3)nc(Sc3ccc(NC(=O)C4CC4)cc3)n2)n[nH]1 [Tozasertib] (partner 0.1 µM)
Put shortly: as §1

On to NCI-H650, for which the relative viability was 0.507 in assay [1] (first compound 0.253 µM); 0.517 in assay [1] (first compound 0.8 µM); 0.352 in assay [1] (first compound 2.53 µM); 0.195 in assay [1] (first compound 8 µM); 0.319 with Obatoclax + Palbociclib (first compound 0.01 µM); 0.352 with Obatoclax + Palbociclib (first compound 0.03162 µM). Besides, the relative viability in the assay with Obatoclax + Palbociclib (first compound 0.3162 µM) was 0.178; with Obatoclax + Palbociclib (first compound 1 µM) it was 0.184; with Bortezomib + Tozasertib (first compound 0.000632 µM), 0.697; in the assay with Bortezomib + Tozasertib (first compound 0.002 µM) it was 0.637; with Bortezomib + Tozasertib (first compound 0.006325 µM), 0.286; with Bortezomib + Tozasertib (first compound 0.02 µM), 0.133. For the same cell line, the relative viability with Obatoclax + Tozasertib (first compound 0.01 µM) was found to be 0.732; with Obatoclax + Tozasertib (first compound 0.03162 µM), 0.779; with Obatoclax + Tozasertib (first compound 0.3162 µM) it was 0.631; with Obatoclax + Tozasertib (first compound 1 µM), 0.309.
